PMC7761982, “FDA-Approved Drugs with Potent In Vitro Antiviral Activity against Severe Acute Respiratory Syndrome Coronavirus 2” (Pharmaceuticals, 2020)
Like-named read-outs stand apart in the source and are kept apart here.

Assays:
[1] = test system: SARS-CoV-2; details: read-out: IC50 against SARS-CoV-2 (reported); cited from earlier work
[2] = in vitro; details: African green monkey, CC50 (Vero-E6), half maximal cytotoxic concentration, MTT assay, Vero-E6 cells
[3] = test system: NRC-03-nhCoV; test: Viral adsorption mechanism, plaque infectivity reduction assay; type: cell-based, SARS-CoV-2
Description: The viral adsorption mechanism was assayed according to a protocol by Zhang and his colleagues with minor modifications. Vero-E6 cells were cultivated in a 6-well plate (10^5 cells/mL) for 24 h at 37 °C. Each tested drug was applied in 200 µL medium without supplements and co-incubated with the cells for 2 h at 4 °C. The inocula containing the non-absorbed drug were removed by washing cells three successive times with supplement-free medium. SARS-CoV-2 virus diluted to 104 PFU/well was co-incubated with the pretreated cells for 1 h, and then 3 mL DMEM supplemented with 2% agarose were added. Plates were left to solidify and then incubated at 37 °C to allow the formation of viral plaques. The plaques were fixed and stained as described above to calculate the percentage reduction in plaque formation compared to control wells, which comprised untreated Vero-E6 cells directly infected with NRC-03-nhCoV.

[4] = test system: SARS-CoV-2; test: Plaque reduction assay, anti-SARS-CoV-2 activity; type: cell-based; details: read-out: viral inhibition, SARS-CoV-2
[5] = test system: NRC-03-nhCoV; test: microbe, parasite or virus in culture; type: cell-based, SARS-CoV-2
[6] = test system: NRC-03-nhCoV; test: Virucidal mechanism, plaque infectivity reduction assay; type: cell-based, SARS-CoV-2; details: for virucidal effect: concentration not given
Description: The virucidal mechanism was assayed following a previously described protocol. In a 6-well plate, Vero-E6 cells were cultivated (10^5 cells/mL) for 24 h at 37 °C and 200 µL of serum-free DMEM containing SARS-CoV-2 was added to each sample with promising inhibition. After 1 h incubation, the mixture was diluted 10-fold three times using serum-free medium, which still allowed viral particles to grow on Vero-E6 cells. Next, 100 µL of each dilution were added to the Vero-E6 cell monolayer. After 1 h contact time, a DMEM overlayer was added to the cell monolayer. Plates were left to solidify and incubated at 37 °C to allow the formation of viral plaques. The plaques were fixed and stained as described above to calculate the percentage reduction in plaque formation. This value was compared to control wells comprising cells infected with virus and not pretreated with the tested material.

[7] = test system: MERS-CoV; test: microbe, parasite or virus in culture; type: cell-based; details: for antiviral effect on MERS-CoV compared with SARS-CoV-2: equal concentrations of drug, plaque reduction assay
[8] = test system: NRC-03-nhCoV; test: Viral replication mechanism, plaque infectivity reduction assay; type: cell-based, SARS-CoV-2
Description: The impact of tested drug on viral replication was determined as previously described. Vero-E6 cells were cultivated in a 6-well plate (10^5 cell/mL) for 24 h at 37 °C. Virus was inoculated directly to the cells and incubated for 1 h at 37 °C. The inocula containing the non-adsorbed viral particles were removed by washing cells three successive times with supplement-free medium. The test compound was added in varying concentrations to infected cells for another 1 h contact time. After removing the inocula containing the tested drug, 3 mL of DMEM supplemented with 2% agarose were added to the cell monolayer. Plates were left to solidify and incubated at 37 °C until the appearance of viral plaques. Cell monolayers were fixed in 10% formalin solution for 1 h and stained with crystal violet. Control wells contained Vero-E6 cells incubated with the virus. Plaques were counted and the percentage reduction in plaque formation was compared to the control wells.

[9] = Severe acute respiratory syndrome coronavirus 2, Vero C1008, 72 h, Vero-E6 cells, 72 h, crystal violet, reduction of virus-induced CPE by 50%, read-out: IC50 (NRC-03-nhCoV)
[10] = Severe acute respiratory syndrome coronavirus 2, Vero C1008, negative log of the IC50 value against SARS-CoV-2, read-out: pIC50 (converted)
[11] = Middle East respiratory syndrome-related coronavirus, read-out: viral inhibition, MERS-CoV
[12] = Severe acute respiratory syndrome coronavirus 2, read-out: Viral Adsorption, percent inhibition
[13] = Severe acute respiratory syndrome coronavirus 2, read-out: Virucidal, percent inhibition
[14] = Severe acute respiratory syndrome coronavirus 2, read-out: Viral Replication, percent inhibition

SMILES	CC50 [2] [nM]	IC50 [5, 9] [nM]	IC50 [5, 10] [nM]	virucidal effect [6]	inhibition at 1.302 µM [3, 12] [%]	inhibition at 2.6 µM [3, 12] [%]	inhibition at 5.2 µM [3, 12] [%]	inhibition at 10.4 µM [3, 12] [%]	inhibition at 1.302 µM [6, 13] [%]	inhibition at 2.6 µM [6, 13] [%]	inhibition at 5.2 µM [6, 13] [%]	inhibition at 10.4 µM [6, 13] [%]	antiviral effect on MERS-CoV compared with SARS-CoV-2 [7]	inhibition at 1.302 µM [8, 14] [%]	inhibition at 2.6 µM [8, 14] [%]	further results
CC[C@H]1OC(=O)[C@H](C)[C@@H](O[C@H]2C[C@@](C)(OC)[C@@H](O)[C@H](C)O2)[C@H](C)[C@@H](O[C@@H]2O[C@H](C)C[C@H](N(C)C)[C@H]2O)[C@](C)(O)C[C@@H](C)CN(C)[C@H](C)[C@@H](O)[C@]1(C)O [Azithromycin]	793000	320	324	up to 51%												IC50 [1]: 2120 nM; inhibition at 0.16 µM ([3]; Severe acute respiratory syndrome coronavirus 2, 0.16 µM, read-out: Viral Adsorption, percent inhibition): 0%; inhibition at 0.322 µM ([3]; Severe acute respiratory syndrome coronavirus 2, 0.322 µM, read-out: Viral Adsorption, percent inhibition): 2%; inhibition at 0.64 µM ([3]; Severe acute respiratory syndrome coronavirus 2, 0.64 µM, read-out: Viral Adsorption, percent inhibition): 27%; inhibition at 1.3 µM ([3]; Severe acute respiratory syndrome coronavirus 2, 1.3 µM, read-out: Viral Adsorption, percent inhibition): ≤ 31%; inhibition at 5 µM ([4]; Severe acute respiratory syndrome coronavirus 2, 5 µM (lowest concentration tested)): ~80%; inhibition at 10 µM ([4]; Severe acute respiratory syndrome coronavirus 2, 10 µM (highest concentration tested)): ~90%; inhibition at 0.16 µM ([6]; Severe acute respiratory syndrome coronavirus 2, 0.16 µM, read-out: Virucidal, percent inhibition): 12%; inhibition at 0.322 µM ([6]; Severe acute respiratory syndrome coronavirus 2, 0.322 µM, read-out: Virucidal, percent inhibition): 34%; inhibition at 0.64 µM ([6]; Severe acute respiratory syndrome coronavirus 2, 0.64 µM, read-out: Virucidal, percent inhibition): 51%; inhibition at 1.3 µM ([6]; Severe acute respiratory syndrome coronavirus 2, 1.3 µM, read-out: Virucidal, percent inhibition): 51%; inhibition at 5 µM [7, 11]: ~20%; inhibition at 10 µM [7, 11]: ~30%; inhibition at 0.16 µM ([8]; Severe acute respiratory syndrome coronavirus 2, 0.16 µM, read-out: Viral Replication, percent inhibition): 0%; inhibition at 0.322 µM ([8]; Severe acute respiratory syndrome coronavirus 2, 0.322 µM, read-out: Viral Replication, percent inhibition): 0%; inhibition at 0.64 µM ([8]; Severe acute respiratory syndrome coronavirus 2, 0.64 µM, read-out: Viral Replication, percent inhibition): 2%; inhibition at 1.3 µM ([8]; Severe acute respiratory syndrome coronavirus 2, 1.3 µM, read-out: Viral Replication, percent inhibition): 4%; inhibitory effect on virus replication ([8]; concentration not given): negligible effect on viral replication
CC(=O)Oc1ccccc1C(=O)Nc1ncc([N+](=O)[O-])s1 [Nitazoxanide]	665000	1290	1290		0	1	11	11	39	61	75	78	equally effective against SARS-CoV-2 and MERS-CoV	35	40	Viral Replication, percent inhibition ([8]; 5.2 µM): Toxic; Viral Replication, percent inhibition ([8]; 10.4 µM): Toxic
O=C(Nc1ccc([N+](=O)[O-])cc1Cl)c1cc(Cl)ccc1O [Niclosamide]	205000	160	162	37%	0	0	0	0	16	21	21	37	equally effective against SARS-CoV-2 and MERS-CoV	23	55	inhibition during the viral adsorption stage ([3]; concentration not given): negligible reduction in viral inhibition; inhibition at 5.2 µM ([8]; Severe acute respiratory syndrome coronavirus 2, 5.2 µM, read-out: Viral Replication, percent inhibition): 68%; inhibition at 10.4 µM ([8]; Severe acute respiratory syndrome coronavirus 2, 10.4 µM, read-out: Viral Replication, percent inhibition): 70%
